Assay results: US3954793A, “1-(2-Propynyl)-1 H-indazole compounds” (priority 1973, dated 1976)

Assays:
houseflies = assay: topical application with Diazinon, Table XXVII (strain not given); assay type: in vivo; conditions: for mortality at 10 µg/fly: Musca domestica, topical, 24 h, Diazinon 0, synergist 10 μg/fly, read-out: percent kill after 24 hours, synergist alone (Table XXVII)
CH strain houseflies = assay: spray application of pyrethrum, percent knockdown as a function of time; assay type: in vivo; conditions: pyrethrum 100 + synergist 100 mg/cc
Description: The average percent knockdown of CH strain flies, as a function of time, resulting from spray application of pyrethrum, alone and with synergists, are given in Table XXXXIII. Duplicate tests were performed using 50 CH strain houseflies per test. Test solutions of 100 mg and 200mg of pyrethrum per cc of acetone, 200 mg of synergist per cc of acetone, and a mixture of 100 mg of pyrethrum and 100 mg of synergist per cc of acetone were prepared. The fifty CH strain houseflies were put in a 40 liter spray chamber and 1 cc of the test solution was sprayed into the test chamber with a spray pistol. The synergists alone at 200 mg/cc caused no knockdown.

| SMILES | percent kill after 24 hours, with Diazinon (Table XXVII) (houseflies; Diazinon 5 + synergist 10 μg/fly) [%] | mortality at 10 µg/fly (houseflies) [%] | average percent knockdown, pyrethrum with synergist (CH strain houseflies; 5 minutes) [%] | average percent knockdown, pyrethrum with synergist (CH strain houseflies; 10 minutes) [%] | average percent knockdown, pyrethrum with synergist (CH strain houseflies; 15 minutes) [%] | average percent knockdown, pyrethrum with synergist (CH strain houseflies; 20 minutes) [%] | average percent knockdown, pyrethrum with synergist (CH strain houseflies; 25 minutes) [%] | average percent knockdown, pyrethrum with synergist (CH strain houseflies; 30 minutes) [%] | average percent knockdown, pyrethrum with synergist (CH strain houseflies; 40 minutes) [%] | average percent knockdown, pyrethrum with synergist (CH strain houseflies; 50 minutes) [%] | average percent knockdown, pyrethrum with synergist (CH strain houseflies; 60 minutes) [%] |
| --- | --- | --- | --- | --- | --- | --- | --- | --- | --- | --- | --- |
| C#CCON=C(C)c1ccc(Cl)cc1 [I-D] | 100 | 0 | 6 | 15 | 26 | 39 | 52 | 60 | 86 | 87 | 88 |
| C#CCON=Cc1cccc2ccccc12 [I-I] |  | 0 | 4 | 7 | 19 | 29 | 40 | 49 | 57 | 86 | 92 |
| C#CCON=Cc1ccc(Cl)cc1Cl [I-G] |  | 0 | 7 | 12 | 31 | 36 | 59 | 66 | 89 | 93 | 94 |
| C#CCOCc1c(Cl)ccc(Cl)c1Cl [II-E] |  |  | 5 | 9 | 17 | 44 | 55 | 59 | 77 | 93 | 95 |
